Test results: ChEMBL document CHEMBL1126491, “Dual antagonists of platelet activating factor and histamine. 2. pyridine ring substitution of N-acetyl-4-(8-chloro-5,6-dihydro-11H-benzo[5,6]cyclohepta[1,2-b]pyridin-11-ylidene)piperidines” (Bioorg Med Chem Lett, 1993)
pIC50, pKi: −log10 of the molar value.

What was measured:
[1] = target: Histamine H1 receptor (Rattus norvegicus, UniProt P31390); assay: Ability to displace [3H]-pyrilamine from H1 receptor in rat brain membrane.; format: cell membranes
Histamine H1 receptor, sequence (P31390 whole entry): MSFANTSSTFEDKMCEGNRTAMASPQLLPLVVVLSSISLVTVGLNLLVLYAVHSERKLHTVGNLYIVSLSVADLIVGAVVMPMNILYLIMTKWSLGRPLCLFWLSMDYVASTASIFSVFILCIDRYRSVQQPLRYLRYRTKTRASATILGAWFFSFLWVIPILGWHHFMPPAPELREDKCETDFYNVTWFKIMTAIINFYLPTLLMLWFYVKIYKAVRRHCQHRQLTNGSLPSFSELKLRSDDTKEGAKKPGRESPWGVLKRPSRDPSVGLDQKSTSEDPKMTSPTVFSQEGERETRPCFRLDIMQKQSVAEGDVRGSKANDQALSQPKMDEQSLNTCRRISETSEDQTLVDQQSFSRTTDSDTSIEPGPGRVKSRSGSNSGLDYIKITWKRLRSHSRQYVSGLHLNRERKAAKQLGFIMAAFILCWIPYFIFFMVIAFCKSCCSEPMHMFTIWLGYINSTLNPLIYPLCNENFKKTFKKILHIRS

[2] = species on record: Homo sapiens; assay: Concentration for inhibition of PAF-induced platelet aggregation in human platelet-rich plasma; format: functional

pKi [1]	pIC50 [2]	SMILES
< 5.00	5.52	COc1ccnc2c1CCc1cc(Cl)ccc1C2=C1CCN(C(C)=O)CC1
< 5.00	5.22	COc1ccc2c(n1)C(=C1CCN(C(C)=O)CC1)c1ccc(Cl)cc1CC2
5.80	5.38	CC(=O)N1CCC(=C2c3ccc(Cl)cc3CCc3cc(O)cnc32)CC1
7.70	6.16	CC(=O)N1CCC(=C2c3ccc(Cl)cc3CCc3cc(CO)cnc32)CC1
6.62	5.10	CC(=O)N1CCC(=C2c3ccc(Cl)cc3CCc3c(Cl)ccnc32)CC1
6.64	5.22	CC(=O)N1CCC(=C2c3ccc(Cl)cc3CCc3c(C)ccnc32)CC1
6.68	6.22	CSc1cnc2c(c1)CCc1cc(Cl)ccc1C2=C1CCN(C(C)=O)CC1
7.15	6.47	CC(=O)N1CCC(=C2c3ccc(Cl)cc3CCc3cc(C)cnc32)CC1
5.99	6.55	CC(=O)N1CCC(=C2c3ccc(Cl)cc3CCc3ccc(C)nc32)CC1
7.00	6.03	CC(=O)N1CCC(=C2c3ccc(Cl)cc3CCc3cc(Cl)cnc32)CC1
6.15	5.56	CC(=O)N1CCC(=C2c3ccc(Cl)cc3CCc3cc(C=O)cnc32)CC1
5.87	6.21	CC(=O)N1CCC(=C2c3ccc(Cl)cc3CCc3ccc(Cl)nc32)CC1
< 5.00	5.17	CC(=O)N1CCC(=C2c3ccc(Cl)cc3CCc3ccc(O)nc32)CC1
5.94	5.68	CC(=O)c1cnc2c(c1)CCc1cc(Cl)ccc1C2=C1CCN(C(C)=O)CC1
8.00	5.64	CC(=O)N1CCC(=C2c3ccc(Cl)cc3CCc3cc(Br)cnc32)CC1
6.64	5.97	CC(=O)N1CCC(=C2c3ccc(Cl)cc3CCc3cc(-c4ccccc4)cnc32)CC1
< 5.00	≤ 4.30	CC(=O)N1CCC(=C2c3ccc(Cl)cc3CCc3c(O)ccnc32)CC1
–	6.21	CC(=O)N1CCC(=C2c3ccc(Cl)cc3CCc3cccnc32)CC1 [SCH-37370]
7.40	5.97	CC(=O)N1CCC(=C2c3ccc(Cl)cc3CCc3cc(C(C)O)cnc32)CC1 (centres undefined)
6.37	5.83	COc1cnc2c(c1)CCc1cc(Cl)ccc1C2=C1CCN(C(C)=O)CC1
